Test results reported in the supplement of paper PMC10307832.

Tests used:
Experiment in all cases: relative viability (nuclei count vs DMSO), 5 days (fraction); higher = more cells survive
Sunitinib + Tozasertib = compound: CCN(CC)CCNC(=O)c1c(C)[nH]c(/C=C2\C(=O)Nc3ccc(F)cc32)c1C [Sunitinib] + Cc1cc(Nc2cc(N3CCN(C)CC3)nc(Sc3ccc(NC(=O)C4CC4)cc3)n2)n[nH]1 [Tozasertib] (partner 0.1 µM)
Method in brief: (§1)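 Medians of duplicate plates are given as relative viability. That measure is the nuclei count in treated wells divided by the count in vehicle wells. Counts were taken on 4× images of lung cancer cell lines in 1536-well plates, 5 days after pin-tool dosing the day after seeding with one drug alone or a fixed anchor-drug dose plus five library-drug doses (not always all listed) in √10 steps.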

Sunitinib + Dasatinib = compound: CCN(CC)CCNC(=O)c1c(C)[nH]c(/C=C2\C(=O)Nc3ccc(F)cc32)c1C [Sunitinib] + Cc1nc(Nc2ncc(C(=O)Nc3c(C)cccc3Cl)s2)cc(N2CCN(CCO)CC2)n1 [Dasatinib] (partner 0.075 µM)
Method in brief: as §1

Sunitinib + Luminespib = compound: CCN(CC)CCNC(=O)c1c(C)[nH]c(/C=C2\C(=O)Nc3ccc(F)cc32)c1C [Sunitinib] + CCNC(=O)c1noc(-c2cc(C(C)C)c(O)cc2O)c1-c1ccc(CN2CCOCC2)cc1 [Luminespib] (partner 0.01 µM)
Method in brief: as §1

Sunitinib + Phenformin = compound: CCN(CC)CCNC(=O)c1c(C)[nH]c(/C=C2\C(=O)Nc3ccc(F)cc32)c1C [Sunitinib] + N=C(N)NC(=N)NCCc1ccccc1 [Phenformin] (partner 250 µM)
Method in brief: as §1

Sunitinib + OSI-027 = compound: CCN(CC)CCNC(=O)c1c(C)[nH]c(/C=C2\C(=O)Nc3ccc(F)cc32)c1C [Sunitinib] + COc1cccc2cc(-c3nc([C@H]4CC[C@H](C(=O)O)CC4)n4ncnc(N)c34)[nH]c12 [OSI-027] (partner 0.5 µM)
Method in brief: as §1

Sunitinib + Foretinib = compound: CCN(CC)CCNC(=O)c1c(C)[nH]c(/C=C2\C(=O)Nc3ccc(F)cc32)c1C [Sunitinib] + COc1cc2c(Oc3ccc(NC(=O)C4(C(=O)Nc5ccc(F)cc5)CC4)cc3F)ccnc2cc1OCCCN1CCOCC1 [Foretinib] (partner 0.25 µM)
Method in brief: as §1

Sunitinib = compound: CCN(CC)CCNC(=O)c1c(C)[nH]c(/C=C2\C(=O)Nc3ccc(F)cc32)c1C [Sunitinib]
Method in brief: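 Viability was read as treated-well nuclei divided by vehicle-well nuclei, using the median across plates. Lung cancer cell lines in 1536-well plates were kept overnight at 37 °C, pinned with five √10-spaced library-drug doses, and after 5 days were Hoechst-stained, imaged at 4× and counted in MetaXpress. Plates passed only with control CV below 25% and at least one doubling.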

Sunitinib + Olaparib = compound: CCN(CC)CCNC(=O)c1c(C)[nH]c(/C=C2\C(=O)Nc3ccc(F)cc32)c1C [Sunitinib] + O=C(c1cc(Cc2n[nH]c(=O)c3ccccc23)ccc1F)N1CCN(C(=O)C2CC2)CC1 [Olaparib] (partner 8 µM)
Method in brief: as §1

Sunitinib + AZD7762 = compound: CCN(CC)CCNC(=O)c1c(C)[nH]c(/C=C2\C(=O)Nc3ccc(F)cc32)c1C [Sunitinib] + NC(=O)Nc1cc(-c2cccc(F)c2)sc1C(=O)N[C@H]1CCCNC1 [AZD7762] (partner 0.2 µM)
Method in brief: as §1

Sunitinib + Decitabine = compound: CCN(CC)CCNC(=O)c1c(C)[nH]c(/C=C2\C(=O)Nc3ccc(F)cc32)c1C [Sunitinib] + Nc1ncn([C@H]2C[C@H](O)[C@@H](CO)O2)c(=O)n1 [Decitabine] (partner 2 µM)
Method in brief: as §1

Sunitinib + Pemetrexed = compound: CCN(CC)CCNC(=O)c1c(C)[nH]c(/C=C2\C(=O)Nc3ccc(F)cc32)c1C [Sunitinib] + Nc1nc2[nH]cc(CCc3ccc(C(=O)N[C@@H](CCC(=O)O)C(=O)O)cc3)c2c(=O)[nH]1 [Pemetrexed] (partner 0.2 µM)
Method in brief: as §1

Sunitinib + Trametinib = compound: CCN(CC)CCNC(=O)c1c(C)[nH]c(/C=C2\C(=O)Nc3ccc(F)cc32)c1C [Sunitinib] + CC(=O)Nc1cccc(-n2c(=O)n(C3CC3)c(=O)c3c(Nc4ccc(I)cc4F)n(C)c(=O)c(C)c32)c1 [Trametinib] (partner 0.02 µM)
Method in brief: as §1

Sunitinib + Vorinostat = compound: CCN(CC)CCNC(=O)c1c(C)[nH]c(/C=C2\C(=O)Nc3ccc(F)cc32)c1C [Sunitinib] + O=C(CCCCCCC(=O)Nc1ccccc1)NO [Vorinostat] (partner 1 µM)
Method in brief: as §1

Sunitinib + Palbociclib = compound: CCN(CC)CCNC(=O)c1c(C)[nH]c(/C=C2\C(=O)Nc3ccc(F)cc32)c1C [Sunitinib] + CC(=O)c1c(C)c2cnc(Nc3ccc(N4CCNCC4)cn3)nc2n(C2CCCC2)c1=O [Palbociclib] (partner 0.5 µM)
Method in brief: as §1

NCI-H1623 was tested, and the relative viability (Sunitinib + Tozasertib; first compound 0.02 µM) was 0.461, the relative viability (Sunitinib + Tozasertib; first compound 0.06325 µM) was 0.434 and the relative viability (Sunitinib + Tozasertib; first compound 0.2 µM) was 0.446. The relative viability (Sunitinib + Tozasertib; first compound 0.6325 µM) was 0.488, the relative viability (Sunitinib + Tozasertib; first compound 2 µM) was 0.369 and the relative viability (Sunitinib + Dasatinib; first compound 0.02 µM) was 0.612. It also gave a relative viability (Sunitinib + Dasatinib; first compound 0.06325 µM) of 0.507, a relative viability (Sunitinib + Dasatinib; first compound 0.2 µM) of 0.574 and a relative viability (Sunitinib + Dasatinib; first compound 0.6325 µM) of 0.58. For the same cell line, the relative viability (Sunitinib + Dasatinib; first compound 2 µM) was 0.543, the relative viability (Sunitinib + Luminespib; first compound 0.02 µM) was 0.545 and the relative viability (Sunitinib + Luminespib; first compound 0.06325 µM) was 0.545. The relative viability (Sunitinib + Luminespib; first compound 0.2 µM) was 0.682, the relative viability (Sunitinib + Luminespib; first compound 0.6325 µM) was 0.611 and the relative viability (Sunitinib + Luminespib; first compound 2 µM) was 0.464. The relative viability (Sunitinib + Phenformin; first compound 0.02 µM) was 0.649, the relative viability (Sunitinib + Phenformin; first compound 0.06325 µM) was 0.499 and the relative viability (Sunitinib + Phenformin; first compound 0.2 µM) was 0.581. The relative viability (Sunitinib + Phenformin; first compound 0.6325 µM) was 0.675, the relative viability (Sunitinib + Phenformin; first compound 2 µM) was 0.49 and the relative viability (Sunitinib + OSI-027; first compound 0.02 µM) was 0.45. It also gave a relative viability (Sunitinib + OSI-027; first compound 0.06325 µM) of 0.393, a relative viability (Sunitinib + OSI-027; first compound 0.2 µM) of 0.474 and a relative viability (Sunitinib + OSI-027; first compound 0.6325 µM) of 0.407. For the same cell line, the relative viability (Sunitinib + OSI-027; first compound 2 µM) was 0.358, the relative viability (Sunitinib + Foretinib; first compound 0.02 µM) was 0.83 and the relative viability (Sunitinib + Foretinib; first compound 0.06325 µM) was 0.843. It also gave a relative viability (Sunitinib + Foretinib; first compound 0.2 µM) of 0.955, a relative viability (Sunitinib + Foretinib; first compound 0.6325 µM) of 0.977 and a relative viability (Sunitinib + Foretinib; first compound 2 µM) of 0.872. The relative viability (Sunitinib; 0.02 µM) was 0.98, the relative viability (Sunitinib; 0.06325 µM) was 0.96 and the relative viability (Sunitinib; 0.2 µM) was 0.994. The relative viability (Sunitinib; 2 µM) was 0.916.
Cell Line NCI-H2342 has a relative viability (Sunitinib + Tozasertib; first compound 0.02 µM) of 0.396, a relative viability (Sunitinib + Tozasertib; first compound 0.06325 µM) of 0.616 and a relative viability (Sunitinib + Tozasertib; first compound 0.2 µM) of 0.539. The relative viability (Sunitinib + Tozasertib; first compound 0.6325 µM) was 0.56, the relative viability (Sunitinib + Tozasertib; first compound 2 µM) was 0.453 and the relative viability (Sunitinib + Dasatinib; first compound 0.02 µM) was 0.327. For the same cell line, the relative viability (Sunitinib + Dasatinib; first compound 0.06325 µM) was 0.288, the relative viability (Sunitinib + Dasatinib; first compound 0.2 µM) was 0.301 and the relative viability (Sunitinib + Dasatinib; first compound 0.6325 µM) was 0.338. The relative viability (Sunitinib + Dasatinib; first compound 2 µM) was 0.336, the relative viability (Sunitinib + Luminespib; first compound 0.02 µM) was 0.658 and the relative viability (Sunitinib + Luminespib; first compound 0.06325 µM) was 0.67. For the same cell line, the relative viability (Sunitinib + Luminespib; first compound 0.2 µM) was 0.868, the relative viability (Sunitinib + Luminespib; first compound 0.6325 µM) was 0.778 and the relative viability (Sunitinib + Luminespib; first compound 2 µM) was 0.838. The relative viability (Sunitinib + Olaparib; first compound 0.02 µM) was 0.48, the relative viability (Sunitinib + Olaparib; first compound 0.06325 µM) was 0.456 and the relative viability (Sunitinib + Olaparib; first compound 0.2 µM) was 0.527. The relative viability (Sunitinib + Olaparib; first compound 0.6325 µM) was 0.475, the relative viability (Sunitinib + Olaparib; first compound 2 µM) was 0.414 and the relative viability (Sunitinib + AZD7762; first compound 0.02 µM) was 0.48. It also gave a relative viability (Sunitinib + AZD7762; first compound 0.06325 µM) of 0.601, a relative viability (Sunitinib + AZD7762; first compound 0.2 µM) of 0.649 and a relative viability (Sunitinib + AZD7762; first compound 0.6325 µM) of 0.505. It also gave a relative viability (Sunitinib + AZD7762; first compound 2 µM) of 0.556, a relative viability (Sunitinib + Phenformin; first compound 0.02 µM) of 0.523 and a relative viability (Sunitinib + Phenformin; first compound 0.06325 µM) of 0.571. It also gave a relative viability (Sunitinib + Phenformin; first compound 0.2 µM) of 0.62, a relative viability (Sunitinib + Phenformin; first compound 0.6325 µM) of 0.542 and a relative viability (Sunitinib + Phenformin; first compound 2 µM) of 0.727. For the same cell line, the relative viability (Sunitinib + Decitabine; first compound 0.02 µM) was 0.751, the relative viability (Sunitinib + Decitabine; first compound 0.06325 µM) was 0.784 and the relative viability (Sunitinib + Decitabine; first compound 0.2 µM) was 0.708. It also gave a relative viability (Sunitinib + Decitabine; first compound 0.6325 µM) of 0.819, a relative viability (Sunitinib + Decitabine; first compound 2 µM) of 0.718 and a relative viability (Sunitinib + Pemetrexed; first compound 0.02 µM) of 0.731. The relative viability (Sunitinib + Pemetrexed; first compound 0.06325 µM) was 0.821, the relative viability (Sunitinib + Pemetrexed; first compound 0.2 µM) was 0.808 and the relative viability (Sunitinib + Pemetrexed; first compound 0.6325 µM) was 0.739. It also gave a relative viability (Sunitinib + Pemetrexed; first compound 2 µM) of 0.843, a relative viability (Sunitinib + OSI-027; first compound 0.02 µM) of 0.663 and a relative viability (Sunitinib + OSI-027; first compound 0.06325 µM) of 0.657. It also gave a relative viability (Sunitinib + OSI-027; first compound 0.2 µM) of 0.589, a relative viability (Sunitinib + OSI-027; first compound 0.6325 µM) of 0.675 and a relative viability (Sunitinib + OSI-027; first compound 2 µM) of 0.703. For the same cell line, the relative viability (Sunitinib + Trametinib; first compound 0.02 µM) was 0.786, the relative viability (Sunitinib + Trametinib; first compound 0.06325 µM) was 0.877 and the relative viability (Sunitinib + Trametinib; first compound 0.2 µM) was 0.915. It also gave a relative viability (Sunitinib + Trametinib; first compound 0.6325 µM) of 0.767, a relative viability (Sunitinib + Trametinib; first compound 2 µM) of 0.813 and a relative viability (Sunitinib + Foretinib; first compound 0.02 µM) of 0.901. It also gave a relative viability (Sunitinib + Foretinib; first compound 0.06325 µM) of 1.17, a relative viability (Sunitinib + Foretinib; first compound 0.2 µM) of 1.15 and a relative viability (Sunitinib + Foretinib; first compound 0.6325 µM) of 1.18. For the same cell line, the relative viability (Sunitinib + Foretinib; first compound 2 µM) was 1.16, the relative viability (Sunitinib + Vorinostat; first compound 0.02 µM) was 0.622 and the relative viability (Sunitinib + Vorinostat; first compound 0.06325 µM) was 0.918. It also gave a relative viability (Sunitinib + Vorinostat; first compound 0.2 µM) of 0.794, a relative viability (Sunitinib + Vorinostat; first compound 0.6325 µM) of 0.724 and a relative viability (Sunitinib + Vorinostat; first compound 2 µM) of 0.889. For the same cell line, the relative viability (Sunitinib + Palbociclib; first compound 0.02 µM) was 0.446, the relative viability (Sunitinib + Palbociclib; first compound 0.06325 µM) was 0.541 and the relative viability (Sunitinib + Palbociclib; first compound 0.2 µM) was 0.566. It also gave a relative viability (Sunitinib + Palbociclib; first compound 0.6325 µM) of 0.549, a relative viability (Sunitinib + Palbociclib; first compound 2 µM) of 0.579 and a relative viability (Sunitinib; 0.02 µM) of 0.96. It also gave a relative viability (Sunitinib; 0.06325 µM) of 1.09, a relative viability (Sunitinib; 0.2 µM) of 1.03 and a relative viability (Sunitinib; 0.6325 µM) of 1.01. For the same cell line, the relative viability (Sunitinib; 2 µM) was 1.11.
